This is an account of results in patent US5817677A, “5-membered heterocycles, medicaments containing these compounds, their use and processes for their preparation” (priority 1995, dated 1998).

Structures can show the parent of a compound that is named as a salt.

One test relates to human platelets. Nature of the test: Inhibition of the binding of ^3 H-BIBU 52 to human platelets (fibrinogen binding test). Particulars: ^3 H-BIBU 52 5 nM, human platelet-rich plasma, room temperature, 20 minutes; 50% inhibition of binding. As for the experimental part: 1. Inhibition of the binding of ^3 H-BIBU 52 to human platelets
The free and bound ligand is separated by centrifugation and quantitatively determined by scintillation counting. From the measurements, the inhibition of ^3 H-BIBU 52 binding by the test substance is determined.
For this purpose, donor blood is taken from an anticubital vein and anticoagulated with trisodium citrate (final concentration 13 mM). The blood is centrifuged at 170×g for 10 minutes and the supernatant platelet-rich plasma (PRP) is removed. The remaining blood is intensely centrifuged off once more to obtain plasma. The PRP is diluted 1:10 with autologous plasma. […] are incubated with […] of physiological saline solution, 100 ml of test substance solution, 50 ml of ^14 C-sucrose (3700 Bq) and 50 ml of ^3 H-BIBU-52 (final concentration: 5 nM at room temperature for 20 minutes. To measure the non-specific binding, instead of the test substance 5 ml of BIBU 52 (final concentration: […]) are employed. The samples are centrifuged at 10,000×g for 20 seconds and the supernatant is removed. 100 ml of this are measured to determine the free ligand. The pellet is dissolved in 500 ml of 0.2N NaOH, and 450 ml are treated with 2 ml of scintillator and 25 ml of 5N Hcl and measured. The residual plasma still remaining in the pellet is determined from the ^14 C content, the bound ligand from ^3 H-measurement.

A further test concerns platelet aggregation. Nature of the test: Inhibition of collagen-induced platelet aggregation (Born and Cross) in platelet-rich plasma. Format: cell-based, human (platelet-rich plasma of healthy subjects). The conditions noted are these: human platelet-rich plasma, 10 minutes preincubation at 37° C., 50% change in optical density. As for the experimental part:
2. Antithrombotic effect Platelets aggregation is measured by the method of Born and Cross (J. Physiol. 170, 397 (1964)) in platelet-rich plasma of healthy subjects. To inhibit clotting, the blood is treated with sodium citrate, 3.14% in the volume ratio 1:10. Collagen-induced aggregation The course of the decrease in the optical density of the platelet suspension is measured and recorded photometrically after addition of the aggregation-inducing substance. From the angle of inclination of the density curve, the aggregation rate is deduced. The point of the curve at which the greatest light transmission exists is used to calculate the optical density. The amount of collagen is selected to be as low as possible, but in such a way that a reaction curve with an irreversible course results. Commercially available collagen from Hormonchemie, Munich, is used. Before the addition of collagen, the plasma is in each case incubated at 37° C. with the substance for 10 minutes. From the measurements obtained, an EC50 is determined graphically which relates to a 50% change in the optical density in the sense of an inhibition of aggregation.

As usually defined, the IC50 is the midpoint of a concentration-inhibition curve. Read a low IC50 as greater potency. A word on the EC50: it is the concentration that produces a half-maximal response. On to `COC(=O)COc1ccc(NC(=O)c2sc(C3CCNCC3)nc2C)cc1` [2(3), 5-[[4-(Methoxycarbonylmethoxy)phenyl]aminocarbonyl]-4-methyl-2-(4-piperidyl)-1,3-thiazole hydrobromide], for which the IC50 with human platelets amounted to 300 nM. The same molecule came in with an EC50 with platelet aggregation of 140 nM.
The corresponding values for `O=C(O)CO[C@H]1CC[C@H](NC(=O)c2cnc(C3CCNCC3)s2)CC1` [2(12), 5-[[trans-4-(Carboxymethoxy)cyclohexyl]aminocarbonyl]-2-(4-piperidyl)-1,3-thiazole hydrobromide] are 72 nM and 140 nM.
For `Cc1nc(C2CCNCC2)sc1C(=O)Nc1ccc(OCC(=O)O)cc1` [4(3), 5-[[4-(Carboxymethoxy)phenyl]aminocarbonyl]-4-methyl-2-(4-piperidyl)-1,3-thiazole hydrobromide], in that order: 45 nM and 130 nM.
The corresponding values for `O=C(O)COc1ccc(NC(=O)c2nnc(C3CCNCC3)s2)cc1` [4(6), 5-[[4-(Carboxymethoxy)phenyl]aminocarbonyl]-2-(4piperidyl)-1,3,4-thiadiazole hydrochloride] are 64 nM and 170 nM.
Molecule `O=C(/C=C/c1cn(C2CCNCC2)cn1)N[C@H]1CC[C@H](C(=O)O)CC1` [4(8), 4-[trans-2-[(trans-4-Carboxycyclohexyl)aminocarbonyl]-ethenyl]-1-(4-piperidyl)imidazole dihydrochloride] gave an IC50 in the test with human platelets of 2500 nM. A half-maximal effect in the test on platelet aggregation (EC50) was put at 1800 nM.
The corresponding values for `O=C(O)COc1ccc(NC(=O)c2cnc(C3CCNCC3)s2)cc1` [4(19), 5-[[4-(Carboxymethoxy)phenyl]aminocarbonyl]-2-(4-piperidyl)-1,3-thiazole hydrate] are 38 nM and 100 nM.
`O=C(O)CC[C@H]1CC[C@H](NC(=O)c2cnc(C3CCNCC3)s2)CC1` [4(20), 5-[[trans-4-(2-Carboxyethyl)cyclohexyl]aminocarbonyl]-2-(4-piperidyl)-1,3-thiazole hydrobromide] displayed an IC50 in the test with human platelets of 63 nM. Further, the EC50 with platelet aggregation amounted to 120 nM.
The corresponding values for `O=C(N[C@H]1CC[C@H](C(=O)O)CC1)c1cn(CCC2CCNCC2)cn1` [4(27), 4-[[trans-4-Carboxycyclohexyl]aminocarbonyl]-1-[2-(4-piperidyl)ethyl]imidazole dihydrochloride] are 190 nM and 280 nM.
The corresponding values for `CS(=O)(=O)N(CC(=O)O)[C@H]1CC[C@H](C(=O)Nc2cn(C3CCNCC3)cn2)CC1` [5(2), 4-[[trans-4-(N-Carboxymethyl-N-methanesulphonylamino)-cyclohexyl]carbonylamino]-1-(4-piperidyl)imidazole dihydrochloride] are 1600 nM and 3800 nM.
For `O=C(O)CC[C@H]1CC[C@H](NC(=O)c2cn(C3CCNCC3)cn2)CC1` [Example 4, 4-[[trans-4-(2-Carboxyethyl)cyclohexyl]aminocarbonyl]-1-(4-piperidyl)imidazole dihydrochloride], in that order: 120 nM and 160 nM.
